In patent US8076325B2, “1,2,4,5-tetrahydro-3H-benzazepine compounds, a process for their preparation and pharmaceutical compositions containing them” (Les Laboratoires Servier, priority 2007, dated 2011):
Counter-ions that a name gives are not always drawn.

The compounds below were run on spontaneously beating right atrium (assay: Effect of compounds on the spontaneous beating rate of the right atrium in the rat). Details: Rattus norvegicus, 0.25 h.
Protocol: Male WISTAR rats weighing from 325 to 375 g are anaesthetised by ip injection of pentobarbital sodium (30 mg/kg). The heart is rapidly excised and placed in a physiological solution at 4° C. which contains (in mM): NaCl 120.3, KCl 4.8, CaCl2 2.5, KH2PO4 1.0, MgSO4 1.3, NaHCO3 24.2, glucose 11.1, Ca-EDTA 0.016, and which is oxygenated (carbogene 95% O2+5% CO2), pH 7.4. The right atrium (RA), which beats spontaneously, is isolated, placed in a basin, thermostatically controlled at 35° C., containing 20 ml of physiological solution and connected to an isometric tension sensor (model IT-25, EMKA Technologies, Paris, France). The initial tension is set at 0.4 g. The spontaneous beating rate is measured by IOX software (EMKA Technologies, Paris, France). Preparations whose spontaneous beating rate is not between 200 and 300 beats per minute are excluded.
The compounds are dissolved daily at 10^−2M. The following dilutions are stored in ice over the duration of the experiment.
After stabilisation for 30 minutes, the compound under test is added to the medium in cumulative manner every 15 minutes (4 concentrations). The reductions in beating rate are expressed as a percentage relative to the initial rate. The concentration that reduces the initial beating rate by 30% (IC30) is calculated and expressed in terms of molarity (μM).

Compound | IC30
CNC(=O)Oc1ccc2c(c1)CC2CN(C)CCC(=O)N1CCc2cc(OC)c(OC)cc2CC1 (stereo not shown) [Example 44, 7-{[[3-(7,8-Dimethoxy-1,2,4,5-tetrahydro-3H-3-benzazepin-3-yl)-3-oxopropyl](methyl)amino]methyl}bicyclo[4.2.0]octa-1,3,5-trien-3-yl methylcarbamate hydrochloride] | 0.8 µM
CNC(=O)Oc1ccc2c(c1)C(CN(C)CCC(=O)N1CCc3cc(OC)c(OC)cc3CC1)C2 (stereo not shown) [Example 46, 8-{[[3-(7,8-Dimethoxy-1,2,4,5-tetrahydro-3H-3-benzazepin-3-yl)-3-oxopropyl](methyl)amino]methyl}bicyclo[4.2.0]octa-1,3,5-trien-3-yl methylcarbamate hydrochloride] | 0.5 µM
COc1cc2c(cc1OC)CCN(C(=O)CCN(C)CC1Cc3cc(OC(=O)N(C)C)ccc31)CC2 (stereo not shown) [Example 47, 7-{[[3-(7,8-Dimethoxy-1,2,4,5-tetrahydro-3H-3-benzazepin-3-yl)-3-oxopropyl](methyl)amino]methyl}bicyclo[4.2.0]octa-1,3,5-trien-3-yl dimethylcarbamate hydrochloride] | 0.6 µM
COc1cc2c(cc1OC)CCN(C(=O)CCN(C)CC1Cc3ccc(OC(=O)N(C)C)cc31)CC2 (stereo not shown) [Example 50, 8-{[[3-(7,8-Dimethoxy-1,2,4,5-tetrahydro-3H-3-benzazepin-3-yl)-3-oxopropyl](methyl)amino]methyl}bicyclo[4.2.0]octa-1,3,5-trien-3-yl dimethylcarbamate hydrochloride] | 0.5 µM
COc1cc2c(cc1OC)CCN(C(=O)CCNCC1Cc3ccc(OC(=O)N(C)C)cc31)CC2 (stereo not shown) [Example 53, 8-{[[3-(7,8-Dimethoxy-1,2,4,5-tetrahydro-3H-3-benzazepin-3-yl)-3-oxopropyl]amino]methyl}bicyclo[4.2.0]octa-1,3,5-trien-3-yl dimethylcarbamate hydrochloride] | 1.8 µM
COc1cc2c(cc1OC)CCN(C(=O)CCNCC1Cc3cc(OC(=O)N(C)C)ccc31)CC2 (stereo not shown) [Example 54, 7-{[[3-(7,8-Dimethoxy-1,2,4,5-tetrahydro-3H-3-benzazepin-3-yl)-3-oxopropyl]amino]methyl}bicyclo[4.2.0]octa-1,3,5-trien-3-yl dimethylcarbamate hydrochloride] | 0.8 µM
CCN(CC)C(=O)Oc1ccc2c(c1)CC2CN(C)CCC(=O)N1CCc2cc(OC)c(OC)cc2CC1 (stereo not shown) [Example 71, 7-{[[3-(7,8-Dimethoxy-1,2,4,5-tetrahydro-3H-3-benzazepin-3-yl)-3-oxopropyl](methyl)amino]methyl}bicyclo[4.2.0]octa-1,3,5-trien-3-yl diethylcarbamate hydrochloride] | 1.8 µM
COc1cc2c(cc1OC)CCN(C(=O)CCN(C)CC1Cc3cc(OC(=O)N4CCCC4)ccc31)CC2 (stereo not shown) [Example 73, 7-{[[3-(7,8-Dimethoxy-1,2,4,5-tetrahydro-3H-3-benzazepin-3-yl)-3-oxopropyl](methyl)amino]methyl}bicyclo[4.2.0]octa-1,3,5-trien-3-yl 1-pyrrolidinecarboxylate hydrochloride] | 2.4 µM

Same assay, conditions: Rattus norvegicus, 0.25 h; concentration that reduces the initial spontaneous beating rate by 30%; isolated right atrium of male WISTAR rats, 35° C., compound added cumulatively every 15 minutes (4 concentrations); read-out: IC30

Compound | IC30
COc1cc2c(cc1OC)CCN(C(=O)CCN(C)C[C@H]1Cc3cc(OC)c(OC)cc31)CC2 [Example 3a, N-{[(7S)-3,4-Dimethoxybicyclo[4.2.0]octa-1,3,5-trien-7-yl]methyl}-3-(7,8-dimethoxy-1,2,4,5-tetrahydro-3H-3-benzazepin-3-yl)-N-methyl-3-oxopropan-1-amine hydrochloride] | 1.3 µM
COc1cc2c(cc1OC)CCN(C(=O)CCNC[C@H]1Cc3cc(OC)c(OC)cc31)CC2 [Example 4, N-{[(7S)-3,4-Dimethoxybicyclo[4.2.0]octa-1,3,5-trien-7-yl]methyl}-3-(7,8-dimethoxy-1,2,4,5-tetrahydro-3H-3-benzazepin-3-yl)-3-oxopropan-1-amine hydrochloride] | 1.4 µM
COc1cc2c(cc1OC)CCN(C(=O)CCN(C)CC1Cc3cc(OC)c(OC)cc3C1)CC2 [Example 7, N-[(5,6-Dimethoxy-2,3-dihydro-1H-inden-2-yl)methyl]-3-(7,8-dimethoxy-1,2,4,5-tetrahydro-3H-3-benzazepin-3-yl)-N-methyl-3-oxopropan-1-amine hydrochloride] | 1.7 µM
CCOc1ccc2c(c1)CC2CNCCC(=O)N1CCc2cc(OC)c(OC)cc2CC1 (stereo not shown) [Example 14, 3-(7,8-Dimethoxy-1,2,4,5-tetrahydro-3H-3-benzazepin-3-yl)-N-[(3-ethoxybicyclo[4.2.0]octa-1,3,5-trien-7-yl)methyl]-3-oxopropan-1-amine hydrochloride] | 1 µM
COc1cc2c(cc1OC)CCN(C(=O)CCN(CC1CC1)C[C@H]1Cc3cc(OC)c(OC)cc31)CC2 [Example 22, N-(Cyclopropylmethyl)-N-{[(7S)-3,4-dimethoxybicyclo[4.2.0]octa-1,3,5-trien-7-yl]methyl}-3-(7,8-dimethoxy-1,2,4,5-tetrahydro-3H-3-benzazepin-3-yl)-3-oxopropan-1-amine hydrochloride] | 0.8 µM
C=CCN(CCC(=O)N1CCc2cc(OC)c(OC)cc2CC1)C[C@H]1Cc2cc(OC)c(OC)cc21 [Example 23, N-Allyl-N-{[(7S)-3,4-dimethoxybicyclo[4.2.0]octa-1,3,5-trien-7-yl]methyl}-3-(7,8-dimethoxy-1,2,4,5-tetrahydro-3H-3-benzazepin-3-yl)-3-oxopropan-1-amine hydrochloride] | 1.4 µM
COc1cc2c(cc1OC)CCN(C(=O)CCN(C[C@H]1Cc3cc(OC)c(OC)cc31)C1CCCC1)CC2 [Example 27, N-Cyclopentyl-N-{[(7S)-3,4-dimethoxybicyclo[4.2.0]octa-1,3,5-trien-7-yl]methyl}-3-(7,8-dimethoxy-1,2,4,5-tetrahydro-3H-3-benzazepin-3-yl)-3-oxopropan-1-amine fumarate] | 1.2 µM
COc1cc2c(cc1OC)CCN(C(=O)CCN(CC1CCCC1)C[C@H]1Cc3cc(OC)c(OC)cc31)CC2 [Example 28, N-(Cyclopentylmethyl)-N-{[(7S)-3,4-dimethoxybicyclo[4.2.0]octa-1,3,5-trien-7-yl]methyl}-3-(7,8-dimethoxy-1,2,4,5-tetrahydro-3H-3-benzazepin-3-yl)-3-oxopropan-1-amine hydrochloride] | 1.2 µM
COc1cc2c(cc1OC)CCN(C(=O)CCN(CC1CCC1)C[C@H]1Cc3cc(OC)c(OC)cc31)CC2 [Example 29, N-(Cyclobutylmethyl)-N-{[(7S)-3,4-dimethoxybicyclo[4.2.0]octa-1,3,5-trien-7-yl]methyl}-3-(7,8-dimethoxy-1,2,4,5-tetrahydro-3H-3-benzazepin-3-yl)-3-oxopropan-1-amine fumarate] | 0.4 µM
COc1ccc2c(c1)CCN(C(=O)CCN(C)C[C@H]1Cc3cc(OC)c(OC)cc31)CC2 [Example 34, N-{[(7S)-3,4-Dimethoxybicyclo[4.2.0]octa-1,3,5-trien-7-yl]methyl}-3-(7-methoxy-1,2,4,5-tetrahydro-3H-3-benzazepin-3-yl)-N-methyl-3-oxopropan-1-amine hydrochloride] | 1.3 µM
COc1cc2c(cc1C)C(CN(C)CCC(=O)N1CCc3cc(OC)c(OC)cc3CC1)C2 (stereo not shown) [Example 74, 3-(7,8-Dimethoxy-1,2,4,5-tetrahydro-3H-3-benzazepin-3-yl)-N-{[3-methoxy-4-methyl-bicyclo[4.2.0]octa-1,3,5-trien-7-yl]methyl}-N-methyl-3-oxopropan-1-amine hydrochloride] | 1 µM
COc1cc2c(cc1C)CC2CN(C)CCC(=O)N1CCc2cc(OC)c(OC)cc2CC1 (stereo not shown) [Example 76, 3-(7,8-Dimethoxy-1,2,4,5-tetrahydro-3H-3-benzazepin-3-yl)-N-{[4-methoxy-3-methyl-bicyclo[4.2.0]octa-1,3,5-trien-7-yl]methyl}-N-methyl-3-oxopropan-1-amine hydrochloride] | 1.6 µM

Same assay, conditions: concentration that reduces the initial spontaneous beating rate by 30%; isolated right atrium of male WISTAR rats, 35° C., compound added cumulatively every 15 minutes (4 concentrations); read-out: IC30

Compound | IC30
7-({[3-(7,8-Dimethoxy-1,2,4,5-tetrahydro-3H-3-benzazepin-3-yl)-3-oxopropyl](methyl)amino}methyl)bicyclo[4.2.0]octa-1,3,5-trien-3-yl hexahydrocyclopenta[c]pyrrole-2(1H)-carboxylate (cis compound) [Example 78] | 2.0 µM
COc1cc2c(cc1OC)CCN(C(=O)CCN(C)CC1Cc3cc(OC(=O)N(C)C)ccc31)CC2.Cl (single isomer, unassigned; (-)) [Example 48, (−) enantiomer of 7-{[[3-(7,8-dimethoxy-1,2,4,5-tetrahydro-3H-3-benzazepin-3-yl)-3-oxopropyl](methyl)amino]methyl}bicyclo[4.2.0]octa-1,3,5-trien-3-yl dimethylcarbamate hydrochloride] | 0.5 µM
